Drawing on patent publication US11034692B1 (Genentech, Inc., priority 2017, dated 2021), this text covers Ki for 29 molecules.

This experiment concerns the target HPK1. The experiment can be described thus: HPK1 Lantha Binding Assay ("Lanth"). Particulars: Table B1-1, read-out: HPK1 Ki (μM) (Lanth). As to the method: HPK1 Lantha Binding Assay (“Lanth”)
The compounds to be tested were diluted by preparing 12.5 uL/well of 5 mM compound (100×) in columns 2 and 13 and 10 ul/well of DMSO in columns 3-12, 14-23, and wells A1-H1 and I24-P24 of the compound plate using a Bravo liquid handling platform. For the reference compound, the top concentration was 1 mM. To the plate was added 10 ul 2 mM staurosporine in wells J1-P1 and A24-H24. A 11 point 5-fold compound serial dilution was performed using the Bravo liquid handling platform. From the plate were transferred 2.5 ul of the solutions from column 2 and column 13 to the 10 ul of DMSO in columns 3 and 14 & so on. The compound plate was centrifuged at 2500 rpm for 1 min. From the compound plate was transferred 80 nl of the compounds into an assay plate using the Echo liquid handler system. One compound plate makes two assay plates. Each assay plate is sealed and stored in an N2 cabinet.
The following assay concentrations and times were used: 2 nM HPK1, 2 nM Eu-Anti-GST Ab, and 15 nM Tracer222, with 60 min incubation time.
III. HPK Lantha Binding Assay:
For the binding assay, 4 ul 2×HPK1 and Eu-anti-GST antibody were added to each well of the assay plate using a Multidrop reagent dispenser. The solutions were incubated in a 23 C incubator for 1 h. To each well of the assay plate was added 4 ul 2× Tracer-222 using a Multidrop reagent dispenser. The solutions were again incubated in a 23 C incubator for 1 h. The results of the assay were read using an Envision plate reader with the following parameters: TR_FRET, 340ex/615 and 665em; 100 usec Delay; and 200 usec integration.
Compound Ki was analyzed using Morrison ki fit model in XL-fit • a. fit=(1−((((E+x)+(Ki*(1+(S/Kd))))−(((((E+x)+(Ki*(1+(S/Kd))))[…])−((4*E)*x))^0.5))/(2*E))) • res=(y-fit) • b. Parameters: • E=enzyme concentration • S=Tracer222 concentration, Kd=Tracer222 Kd • All measurements reported using the same units (uM)
Exemplary compounds of Formula I or Ia were tested in the binding assays. The Ki data in Table B1-1 are based on the “Lanth” assay.
On to `Cc1cc(Nc2cc3cc(-c4cnccc4C)nc(N)c3cn2)n(CCO)n1` [Compound 261, 2-(5-[[8-amino-6-(4-methylpyridin-3-yl)-2,7-naphthyridin-3-yl]amino]-3-methyl-1H-pyrazol-1-yl)ethan-1-ol], for which the Ki (in general, a measure of affinity in units of concentration, obtained from inhibition or displacement) is 36.7 nM.

As to `CC(=O)Nc1cc2c(F)c(-c3cnccc3C)nc(N)c2cn1` [Compound 156, N-(8-amino-5-fluoro-6-(4-methylpyridin-3-yl)-2,7-naphthyridin-3-yl)acetamide], the inhibitory constant (Ki) worked out at 21 nM. With `Nc1nc(-c2cnccc2C(F)F)cc2cc(NC(=O)[C@@H]3C[C@@H]3F)ncc12` [Compound 14, (1S,2S)—N-(8-amino-6-(4-(difluoromethyl)pyridin-3-yl)-2,7-naphthyridin-3-yl)-2-fluorocyclopropanecarboxamide] the figure was 9.46 nM; with `CCc1ccncc1-c1cc2cc(NC(=O)N[C@@H]3CCN(C)C3=O)ncc2c(N)n1` [Compound 176, (R)-1-(8-amino-6-(4-ethylpyridin-3-yl)-2,7-naphthyridin-3-yl)-3-(1-methyl-2-oxopyrrolidin-3-yl)urea], 5.5 nM; with `Cc1ccncc1-c1cc2cc(NC(=O)[C@@H]3C[C@@]34CCNC(=O)C4)ncc2c(N)n1` [Compound 312, (1R,3S)—N-[8-amino-6-(4-methylpyridin-3-yl)-2,7-naphthyridin-3-yl]-5-oxo-6-azaspiro[2.5]octane-1-carboxamide], 5.77 nM. `Cc1cc(-c2cnn(C)c2)ncc1-c1cc2cc(NC(=O)[C@@H]3C[C@H]3CC#N)ncc2c(N)n1` [Compound 237, (1R,2S)—N-(8-amino-6-(4-methyl-6-(1-methyl-1H-pyrazol-4-yl)pyridin-3-yl)-2,7-naphthyridin-3-yl)-2-(cyanomethyl)cyclopropanecarboxamide]: the Ki stood at 10.2 nM. As for `Cc1ccncc1-c1cc2cc(Nc3cnn([C@@H](C)C#N)c3)ncc2c(N)n1` [Compound 274, (S)-2-(4-(8-amino-6-(4-methylpyridin-3-yl)-2,7-naphthyridin-3-ylamino)-1H-pyrazol-1-yl)propanenitrile], the inhibition constant (Ki) was found to be 0.297 nM. `Cc1c(N)cncc1-c1cc2cc(NC(=O)[C@H]3C[C@@H]3CC#N)ncc2c(N)n1` [Compound 247, (1S,2R)—N-[8-amino-6-(5-amino-4-methylpyridin-3-yl)-2,7-naphthyridin-3-yl]-2-(cyanomethyl)cyclopropane-1-carboxamide]: the inhibition constant (Ki) is 0.0219 nM. On to `CCc1ccncc1-c1cc2cc(Nc3ccn(C)n3)ncc2c(N)n1` [Compound 76, 3-(4-Ethylpyridin-3-yl)-N6-(1-methyl-1H-pyrazol-3-yl)-[2,7]naphthyridine-1,6-diamine], for which the Ki stood at 1.3 nM.

Turning to `CCc1ccncc1-c1cc2cc(NC(=O)c3cc(C)[nH]n3)ncc2c(N)n1` [Compound 70, 5-Methyl-1H-pyrazole-3-carboxylic acid [8-amino-6-(4-ethylpyridin-3-yl)-[2,7]naphthyridin-3-yl]amide], the Ki amounted to 27.6 nM. As to `Cc1ccncc1-c1cc2cc(Nc3cnn([C@H]4CCN(C)C4=O)c3)ncc2c(N)n1` [Compound 250, (3S)-3-(4-[[8-amino-6-(4-methylpyridin-3-yl)-2,7-naphthyridin-3-yl]amino]-1H-pyrazol-1-yl)-1-methylpyrrolidin-2-one], the inhibition constant Ki worked out at 0.184 nM. In the case of `Cc1ccncc1-c1cc2cc(NC(=O)[C@H]3[C@@H]4CN(S(C)(=O)=O)C[C@@H]43)ncc2c(N)n1` [Compound 151, exo-N-[8-amino-6-(4-methyl-3-pyridyl)-2,7-naphthyridin-3-yl]-3-methylsulfonyl-3-azabicyclo [3.1.0]hexane-6-carboxamide], the inhibition constant Ki turned out to be 15 nM. As for `Cc1ccncc1-c1cc2cc(Nc3ccc(CS(N)(=O)=O)cc3)ncc2c(N)n1` [Compound 264, (4-[[8-Amino-6-(4-methylpyridin-3-yl)-2,7-naphthyridin-3-yl]amino]phenyl)methanesulfonamide], the inhibition constant Ki was 0.134 nM. The value for `Cc1ccc(C(=O)N(C)C)cc1-c1cc2cc(NC(=O)[C@@H]3C[C@H]3c3cnn(C)c3)ncc2c(N)n1` [Compound 291, 3-(1-amino-6-[[(1R,2R)-2-(1-methyl-1H-pyrazol-4-yl)cyclopropane]amido]-2,7-naphthyridin-3-yl)-N,N,4-trimethylbenzamide] was 63.8 nM; that for `Cn1cc([C@H]2C[C@@H]2C(=O)Nc2cc3cc(-c4ccccc4Cl)nc(N)c3cn2)cn1` (stereo in doubt) [Compound 304, (1S,2S)—N-[8-amino-6-(2-chlorophenyl)-2,7-naphthyridin-3-yl]-2-(1-methyl-1H-pyrazol-4-yl)cyclopropane-1-carboxamide] was 3.02 nM; that for `CC(=O)N1C[C@@H]2[C@H](C1)[C@H]2C(=O)Nc1cc2cc(-c3cnccc3C)nc(N)c2cn1` [Compound 143, exo-3-acetyl-N-[8-amino-6-(4-methyl-3-pyridyl)-2,7-naphthyridin-3-yl]-3-azabicyclo[3.1.0]hexane-6-carboxamide] was 5.9 nM. With `N#CC[C@H]1C[C@@H]1C(=O)Nc1cc2cc(-c3c(Cl)cccc3Cl)nc(N)c2cn1` [Compound 310, (1S,2R)—N-(8-amino-6-(2,6-dichlorophenyl)-2,7-naphthyridin-3-yl)-2-(cyanomethyl)cyclopropanecarboxamide], the inhibitory constant (Ki) was found to be 0.0675 nM. On to `Cc1ccncc1-c1cc2cc(Nc3cnn(CC(C)(C)O)c3)ncc2c(N)n1` [Compound 260, 1-(4-[[8-amino-6-(4-methylpyridin-3-yl)-2,7-naphthyridin-3-yl]amino]-1H-pyrazol-1-yl)-2-methylpropan-2-ol], for which the Ki turned out to be 0.73 nM. `Cc1ccncc1-c1nc(N)c2cnc(NC(=O)Nc3cnn(C)c3)cc2c1Cl` [Compound 163, 1-[8-amino-5-chloro-6-(4-methyl-3-pyridyl)-2,7-naphthyridin-3-yl]-3-(1-methylpyrazol-4-yl)urea]: the Ki was 1.2 nM. For `Cc1ccncc1-c1cc2cc(NC(=O)[C@@H]3[C@@H](C)[C@H]3c3cnn(C)c3)ncc2c(N)n1` [Compound 326, (1R,2S,3R)—N-[8-amino-6-(4-methylpyridin-3-yl)-2,7-naphthyridin-3-yl]-2-methyl-3-(1-methyl-1H-pyrazol-4-yl)cyclopropane-1-carboxamide], the Ki was 0.074 nM. For `CCc1ccncc1-c1cc2cc(NC(=O)N[C@H]3C[C@@H](O)C3)ncc2c(N)n1` [Compound 109, 1-[8-amino-6-(4-ethyl-3-pyridyl)-2,7-naphthyridin-3-yl]-3-(cis-3-hydroxycyclobutyl)urea], the Ki is 1.3 nM. As to `Cc1ccncc1-c1cc2cc(NC(=O)O[C@@H]3CCNC3=O)ncc2c(N)n1` [Compound 133], the inhibitory constant (Ki) came out at 15 nM. Take `CC(=O)N1CC(n2cc(Nc3cc4cc(-c5cnccc5C)nc(N)c4cn3)cn2)C1` [Compound 161, 1-[3-[4-[[8-amino-6-(4-methyl-3-pyridyl)-2,7-naphthyridin-3-yl]amino]pyrazol-1-yl]azetidin-1-yl]ethanone]: the inhibitory constant (Ki) is 0.02 nM.

Consider `Cc1ccc(O)cc1-c1cc2cc(NC(=O)[C@H]3C[C@@H]3c3cnn(C)c3)ncc2c(N)n1` [Compound 286, (1S,2S)—N-[8-amino-6-(5-hydroxy-2-methylphenyl)-2,7-naphthyridin-3-yl]-2-(1-methyl-1H-pyrazol-4-yl)cyclopropane-1-carboxamide], for which the inhibitory constant (Ki) amounted to 1.82 nM. For the molecule `CCc1ccncc1-c1cc2cc(NC(=O)CCC(N)=O)ncc2c(N)n1` [Compound 29, N′-[8-amino-6-(4-ethyl-3-pyridyl)-2,7-naphthyridin-3-yl]butanediamide], the inhibitory constant (Ki) came out at 14 nM.

Regarding `Cc1ccncc1-c1cc2cc(Nc3ccc(N4CCNCC4=O)cc3)ncc2c(N)n1` [Compound 265, 1-(4-[[8-amino-6-(4-methylpyridin-3-yl)-2,7-naphthyridin-3-yl]amino]phenyl)piperazin-2-one], the Ki was determined as 0.249 nM.

Consider `CCc1ccncc1-c1cc2cc(NC(=O)N[C@@H]3CCN(C)C3=O)ncc2c(N)n1` [Compound 65, (R)-1-(8-amino-6-(4-ethylpyridin-3-yl)-2,7-naphthyridin-3-yl)-3-(1-methyl-2-oxopyrrolidin-3-yl)urea], for which the Ki is 5.47 nM. As for `Cc1c(N)cncc1-c1cc2cc(NC(=O)[C@@H]3C[C@H]3CC#N)ncc2c(N)n1` [Compound 248, (1R,2S)—N-[8-amino-6-(5-amino-4-methylpyridin-3-yl)-2,7-naphthyridin-3-yl]-2-(cyanomethyl)cyclopropane-1-carboxamide], the inhibition constant (Ki) was determined as 1.03 nM. For the molecule `Cc1ccncc1-c1cc2cc(NC(=O)[C@H]3CC[C@@H]3C)ncc2c(N)n1` [Compound 320, (1S,2S)—N-(8-amino-6-(4-methylpyridin-3-yl)-2,7-naphthyridin-3-yl)-2-methylcyclobutanecarboxamide], the Ki amounted to 7.82 nM.
